According to article PMC4669789, “Selective inhibition of HDAC8 decreases neuroblastoma growth in vitro and in vivo and enhances retinoic acid-mediated differentiation” (Cell Death & Disease, 2015):

Assays:
[1] = test system: BE(2)-C cells; assay: Longer-term colony assay; assay type: cell-based, human; conditions: ATRA 10 μM, 18 days, empty vector control cells
Experimental: In six-well plates, 500 cells were seeded and treated as indicated. Viable colonies were stained after a minimum of 10 days with crystal violet. For quantification, the mean intensity of each well of the 8-bit binary picture was measured with ImageJ software (U. S. National Institutes of Health, Bethesda, MD, USA; http://imagej.nih.gov/ij/).

[2] = test system: BE(2)-C cells; assay: Western blot of histone 4, α-tubulin and SMC3 acetylation; assay type: cell-based, human; conditions: working concentrations: 40 μM Cpd2, 4 μM PCI-34051 and PCI-48000
Experimental: Western blot analysis was performed as described previously.[15] For detection of phosphoproteins, PhosStop (Roche, Penzberg, Germany) was added to the lysis buffer.

[3] = test system: neuroblastoma cell culture; assay: Intracellular whole lysine acetylation via FACS; assay type: cell-based, human
Experimental: Cells were collected, washed with PBS and fixed with 2% paraformaldehyde for 15 min at room temperature (RT). Cells were permeabilized by incubation with 50 μg/ml digitonin for 6 min at RT. Cells were incubated with primary antibody overnight at 4 °C. After staining with Cy3-conjugated anti-rabbit antibody, cells were analyzed by FACS using CellQuest software (BD Biosciences, San Jose, CA, USA). The following primary antibodies were used: anti-acetylated lysine (polyclonal; Cell Signaling) and anti-neurofilament-M (clone EP2460; Epitomics, Burlingame, CA, USA).

[4] = test system: PBMCs; assay: Whole lysine acetylation in PBMC after intraperitoneal administration (FACS); assay type: in vivo, mouse; conditions: 150 mg/kg/d; solvent 32.1
Experimental: Both inhibitors were intraperitoneally injected into NMRI Foxn1 nude mice in increasing doses from 40 up to 400 mg/kg per day for 2 × 5 days. Each dose was tested in a cohort of three animals. Resulting MTDs were validated within cohorts of eight animals for each inhibitor. […] As a reference, the blood of 12 untreated NMRI Foxn1 nude mice was analyzed. […] Vorinostat was used as a control for unselective HDAC inhibition.
Whole blood (100 μl) was collected from the femoral vein of untreated athymic NMRI nude mice (HsdCpb:NMRI-Foxn1^nu; Harlan Laboratories Inc.), and respective animals were killed 2 h after intraperitoneal injection of substances. For the analysis of whole acetylation levels, mice were killed at half-life time of the inhibitors. Whole blood with heparin was added to RBC lysis buffer (diluted 1 : 10) (BioLegend, San Diego, CA, USA) at a ratio of 1 : 4. Next, red blood cell lysis was performed according to the manufacturer's instructions. PBMCs were lysed in SDS lysis buffer for western blot or processed for FACS analysis.

[5] = test system: nude mice; assay: Tolerability during xenograft and long-term treatment (body weight, clinical signs); conditions: mouse, in vivo
Description: Next, we determined the in vivo efficacy of HDAC8-selective inhibition in neuroblastoma xenograft mouse models. […] One week after tumor cell injection, mice established a palpable tumor mass and the animals were then randomly assigned to treatment and control cohorts.

[6] = test system: NMRI Foxn1 nude mice; conditions: mouse, in vivo; cited from earlier work

For `CC1=C(/C=C/C(C)=C/C=C/C(C)=C/C(=O)O)C(C)(C)CCC1` [ATRA, all-trans retinoic acid], the colony formation [1] was “efficiently reduced the ability of empty vector control cells to form colonies”.

For `COc1ccc(Cn2ccc3ccc(C(=O)NO)cc32)cc1` [PCI-34051], the “SMC3 acetylation (HDAC8 substrate)” value [2] was “increase in acetylation level”, the “histone 4 acetylation (HDAC1-3 substrate)” value [2] was “absence of HDAC1-3 substrate acetylation” and the “tubulin acetylation (HDAC6 substrate)” value [2] was “absence of HDAC6 substrate acetylation”.

For `CC(/C=C/C(=O)NO)=C\[C@@H](C)C(=O)c1ccc(N(C)C)cc1` [TSA, trichostatin A], the “whole acetyl-lysine mean fluorescent values (Blank-corrected)” value ([3]; 75nM, solvent 34.4, second experiment) was 92.7, the “whole acetyl-lysine mean fluorescent values (Blank-corrected)” value ([3]; 150nM, solvent 24.7, IMR-32 cells, 24 h per Figure 1c) was 115.1 and the global lysine acetylation ([3]; pan-HDAC inhibitor control, compared with HDAC8 inhibitors) was “much stronger induction of global lysine acetylation”.

For `O=C(CCCCCCC(=O)Nc1ccccc1)NO` [vorinostat, suberoylanilide hydroxamic acid], the “whole acetyl-lysine mean fluorescent values (Blank-corrected), PBMCs” value [4] is given as 54.0, the “tolerability at the applied dose” value [5] is given as “clear signs of toxicity, such as diarrhea and weight loss” and the MTD [6] is given as 150 mg/kg per day.
